8 compounds from patent publication US12612410B2 (CHILDREN'S HOSPITAL MEDICAL CENTER, priority 2020, dated 2026) can be followed below.

The IC50 is the midpoint of a concentration-inhibition curve.

Structures are written as SMILES.

The target of one assay is T1, IRAK1 (Homo sapiens, UniProt P51617).
T1 construct: purchased Reaction Biology (RBC), HotSpot kinase assay
Kind of assay: RBC HotSpot Kinase Assay, IRAK1. Type of assay: biochemical. The following applies: isolated kinase, 33P-ATP. The method in brief: (§1)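 Isolated recombinant kinase (possibly truncated or catalytic-domain form) was preincubated with compound for 20 min at room temp in 20 mM Hepes pH 7.5, 10 mM MgCl2, 1 mM EGTA, 0.01% Brij35, 1% DMSO with substrate; 33P-ATP started a 2 h room-temperature reaction, read by P81 filter binding.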

A further assay concerns MOLM14 D835Y cells. Kind of assay: MOLM14 D835Y cell viability assay (Cell Titer Glo). Type of assay: cell-based. The following applies: Homo sapiens, MOLM-14, 48 h. On the procedure: (§2) Both cell lines have activated FLT3 receptors, each of which carry additional resistance mutations in the kinase domain (D835Y and F691L, respectively).
(§3) MOLM14 D835Y and MOLM14 F691L cells were grown in RPMI-1640 media supplemented with 20% fetal bovine serum (FBS). For viability/cytotoxicity assessments, cells were seeded into 1536-well white polystyrene tissue culture-treated Greiner plates using a Multidrop Combi dispenser (ThermoFisher), in final volume 5 μL of growth media per well, at a density of 1000 cells per well. After cell addition, 23 nL of test compound were transferred into individual wells (22 doses tested for each test compound, with a 1:2 dilution series starting at 10 μM) via a 1536 pin-tool. Bortezomib (final concentration 2.3 μM) was used as a positive control for cell cytotoxicity. Plates were incubated for 48 hours at standard incubator conditions covered by a stainless steel gasketed lid to prevent evaporation. 48 hours post compound addition, 3 μL of Cell Titer Glo (Promega) were added to each well and plates were incubated at room temperature for 15 minutes with the stainless-steel lid in place. Luminescence readings were taken using a Viewlux imager (PerkinElmer) with a 2 second exposure time per plate.
(In general: ATP-based viability assays read luminescence as a measure of living cells.)

The target of another assay is T2, FLT3 (Homo sapiens, UniProt P36888).
T2 sequence (P36888 27-993): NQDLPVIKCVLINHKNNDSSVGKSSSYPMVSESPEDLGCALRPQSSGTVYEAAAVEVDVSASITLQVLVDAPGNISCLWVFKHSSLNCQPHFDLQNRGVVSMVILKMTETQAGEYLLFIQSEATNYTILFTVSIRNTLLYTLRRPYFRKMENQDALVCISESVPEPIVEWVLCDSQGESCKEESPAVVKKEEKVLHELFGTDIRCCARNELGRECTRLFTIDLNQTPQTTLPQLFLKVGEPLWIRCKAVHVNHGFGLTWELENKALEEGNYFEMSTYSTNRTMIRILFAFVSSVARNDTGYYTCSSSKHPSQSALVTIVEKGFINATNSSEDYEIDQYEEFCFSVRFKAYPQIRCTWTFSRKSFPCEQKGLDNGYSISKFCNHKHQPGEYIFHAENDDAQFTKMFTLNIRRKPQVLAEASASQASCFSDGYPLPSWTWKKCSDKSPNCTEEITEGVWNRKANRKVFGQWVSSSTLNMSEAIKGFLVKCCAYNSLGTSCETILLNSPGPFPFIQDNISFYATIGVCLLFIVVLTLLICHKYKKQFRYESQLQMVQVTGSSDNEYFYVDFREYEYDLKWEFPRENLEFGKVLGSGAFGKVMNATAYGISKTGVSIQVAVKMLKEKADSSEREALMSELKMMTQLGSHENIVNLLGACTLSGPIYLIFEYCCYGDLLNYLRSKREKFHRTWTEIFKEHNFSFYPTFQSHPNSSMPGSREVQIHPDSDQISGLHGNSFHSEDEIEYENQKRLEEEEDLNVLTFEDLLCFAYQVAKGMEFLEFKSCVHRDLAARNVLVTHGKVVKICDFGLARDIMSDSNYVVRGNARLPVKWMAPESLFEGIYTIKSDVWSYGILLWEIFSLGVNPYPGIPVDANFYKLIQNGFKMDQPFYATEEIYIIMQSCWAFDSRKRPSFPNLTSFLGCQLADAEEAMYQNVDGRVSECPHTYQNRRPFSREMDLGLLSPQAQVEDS
The assay can be described thus: RBC HotSpot Kinase Assay, FLT3. The following applies: isolated kinase, 33P-ATP. Type of assay: biochemical. On the set-up: purchased Reaction Biology (RBC), HotSpot kinase assay. The method, boiled down:
as §1

For the next assay, the target named is T3, IRAK4 (Homo sapiens, UniProt Q9NWZ3).
T3 sequence (Q9NWZ3 1-460): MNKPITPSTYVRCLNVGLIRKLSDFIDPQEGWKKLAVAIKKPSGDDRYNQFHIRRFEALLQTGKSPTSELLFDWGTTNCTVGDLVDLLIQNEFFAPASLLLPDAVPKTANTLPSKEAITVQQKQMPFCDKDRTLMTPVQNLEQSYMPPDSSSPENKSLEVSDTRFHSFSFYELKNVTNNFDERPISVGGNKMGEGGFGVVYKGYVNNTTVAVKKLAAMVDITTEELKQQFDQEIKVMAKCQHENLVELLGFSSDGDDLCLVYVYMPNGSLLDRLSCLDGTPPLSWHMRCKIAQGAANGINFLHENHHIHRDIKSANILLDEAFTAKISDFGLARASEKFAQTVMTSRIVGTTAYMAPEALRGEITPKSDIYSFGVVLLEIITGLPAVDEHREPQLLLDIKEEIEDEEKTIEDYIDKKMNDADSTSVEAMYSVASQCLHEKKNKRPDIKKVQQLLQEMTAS
Kind of assay: RBC HotSpot Kinase Assay, IRAK4. It counts as biochemical. On the set-up: purchased Reaction Biology (RBC), HotSpot kinase assay. The conditions noted are these: isolated kinase, 33P-ATP. The method, boiled down: as §1

The next assay deals with MOLM14 F691L cells. The assay can be described thus: MOLM14 F691L cell viability assay (Cell Titer Glo). Type of assay: cell-based. The conditions noted are these: Homo sapiens, MOLM-14, 48 h. As for the experimental part: as §2, §3

T1 sequence (P51617 whole entry): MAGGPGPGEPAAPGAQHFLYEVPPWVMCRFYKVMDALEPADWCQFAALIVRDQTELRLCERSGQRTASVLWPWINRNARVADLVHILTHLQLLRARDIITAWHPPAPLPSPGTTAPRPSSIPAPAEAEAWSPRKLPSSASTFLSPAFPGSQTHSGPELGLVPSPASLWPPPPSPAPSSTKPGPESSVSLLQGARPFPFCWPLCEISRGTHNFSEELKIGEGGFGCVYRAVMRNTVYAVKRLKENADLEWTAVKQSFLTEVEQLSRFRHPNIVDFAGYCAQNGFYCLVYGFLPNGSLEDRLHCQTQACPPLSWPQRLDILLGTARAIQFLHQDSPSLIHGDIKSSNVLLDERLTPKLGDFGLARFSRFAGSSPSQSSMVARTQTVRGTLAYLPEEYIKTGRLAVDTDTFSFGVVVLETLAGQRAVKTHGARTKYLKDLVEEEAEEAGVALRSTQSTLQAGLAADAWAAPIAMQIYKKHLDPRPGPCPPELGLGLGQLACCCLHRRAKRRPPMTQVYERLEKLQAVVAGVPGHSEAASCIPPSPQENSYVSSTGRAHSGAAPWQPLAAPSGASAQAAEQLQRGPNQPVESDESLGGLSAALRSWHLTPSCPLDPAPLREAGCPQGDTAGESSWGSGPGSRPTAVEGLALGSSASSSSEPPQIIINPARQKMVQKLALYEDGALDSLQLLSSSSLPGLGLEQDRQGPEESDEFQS

`O=S1(=O)CCCCN1c1cn2c(-c3nc(N[C@H]4CNC[C@@H]4F)c(F)cc3F)cnc2cn1` [Compound 102, 2-(3-(3,5-difluoro-6-(((3S,4S)-4-fluoropyrrolidin-3-yl)amino)pyridin-2-yl)imidazo[1,2-a]pyrazin-6-yl)-1,2-thiazinane 1,1-dioxide]: the 50% inhibitory concentration (IC50) at IRAK1 is 281 nM; in the assay on MOLM14 D835Y cells, 386 nM; against FLT3, 2 nM; against IRAK4, 6 nM; with MOLM14 F691L cells, 4330 nM.
The matching figures for `O=S1(=O)CCCCN1c1cn2c(-c3nc(N[C@H]4CNCC[C@@H]4F)c(F)cc3F)cnc2cn1` [Compound 103, 2-(3-(3,5-difluoro-6-(((3S,4S)-4-fluoropiperidin-3-yl)amino)pyridin-2-yl)imidazo[1,2-a]pyrazin-6-yl)-1,2-thiazinane 1,1-dioxide]: 265 nM, 193 nM, 0.9 nM, 13 nM and 1370 nM.
`O=S1(=O)CCCN1c1cn2c(-c3nc(N[C@@H]4CCCNC4)c(F)cc3F)cnc2cn1` [Compound 104, (R)-2-(3-(3,5-difluoro-6-(piperidin-3-ylamino)pyridin-2-yl)imidazo[1,2-a]pyrazin-6-yl)isothiazolidine 1,1-dioxide]: the IC50 against IRAK1 was 9 nM; with MOLM14 D835Y cells, 11 nM; on FLT3 it was under 0.5 nM; against IRAK4 it was 1 nM; in the assay with MOLM14 F691L cells, 86 nM.
Turning to `O=S1(=O)CCCN1c1cn2c(-c3nc(N[C@H]4CNC[C@@H]4F)c(F)cc3F)cnc2cn1` [Compound 105, 2-(3-(3,5-difluoro-6-(((3S,4S)-4-fluoropyrrolidin-3-yl)amino)pyridin-2-yl)imidazo[1,2-a]pyrazin-6-yl)isothiazolidine 1,1-dioxide], the half-maximal inhibitory concentration (IC50) against IRAK1 is 22 nM; with MOLM14 D835Y cells it was 55 nM; on FLT3, under 0.5 nM; against IRAK4, 1 nM; with MOLM14 F691L cells, 686 nM.
As for `O=S1(=O)CCCN1c1cn2c(-c3nc(N[C@H]4CNCC[C@@H]4F)c(F)cc3F)cnc2cn1` [Compound 106, 2-(3-(3,5-difluoro-6-(((3S,4S)-4-fluoropiperidin-3-yl)amino)pyridin-2-yl)imidazo[1,2-a]pyrazin-6-yl)isothiazolidine 1,1-dioxide], the IC50 on IRAK1 was 21 nM; in the assay on MOLM14 D835Y cells it was 17 nM; against FLT3, under 0.5 nM; against IRAK4, 3 nM; with MOLM14 F691L cells, 122 nM.
As for `O=C1CCCN1c1cn2c(-c3nc(N[C@H]4CNC[C@@H]4F)c(F)cc3F)cnc2cn1` [Compound 109, 1-(3-(3,5-difluoro-6-(((3S,4S)-4-fluoropyrrolidin-3-yl)amino)pyridin-2-yl)imidazo[1,2-a]pyrazin-6-yl)pyrrolidin-2-one], the IC50 at IRAK1 is 52 nM; with MOLM14 D835Y cells it was 137 nM; at FLT3, 0.7 nM; against IRAK4, 4 nM; in the assay on MOLM14 F691L cells, 1930 nM.
Regarding `O=C1COCCN1c1cn2c(-c3cccc(N[C@H]4CNC[C@@H]4F)n3)cnc2cn1` [Compound 110, 4-(3-(6-(((3S,4S)-4-fluoropyrrolidin-3-yl)amino)pyridin-2-yl)imidazo[1,2-a]pyrazin-6-yl)morpholin-3-one], the IC50 against IRAK1 worked out at 4240 nM; with MOLM14 D835Y cells, 154 nM; on FLT3, 3 nM; at IRAK4 it was 98 nM; in the assay with MOLM14 F691L cells it was 1450 nM.
`O=C1COCCN1c1cn2c(-c3cccc(N[C@@H]4CCCNC4)n3)cnc2cn1` [Compound 111, (R)-4-(3-(6-(piperidin-3-ylamino)pyridin-2-yl)imidazo[1,2-a]pyrazin-6-yl)morpholin-3-one]: the half-inhibitory concentration (IC50) against IRAK1 came out at 2130 nM; in the assay on MOLM14 D835Y cells it was 86 nM; against FLT3, 0.5 nM; at IRAK4, 136 nM; with MOLM14 F691L cells, 344 nM.
